# Assay results reported in patent US20050276762A1, “Topical compositions containing 5'-adenosine-diphosphate ribose” (priority 2004, published 2005).
# Experiments:
# [1] = molecular target: poly (ADP-ribose) polymerase (PARP) (Homo sapiens, UniProt P09874); test: PARP assay (in vitro PARP inhibition); format: biochemical; settings: same concentration as ADP-ribose (4 to 10 mM); FIG. 2
# Protocol: 1. […] 2. Cover the plate with an adhesive plate sealer and incubate for 2 hours at room temperature (or overnight at 2-8° C.). 1. […] After the last wash, remove any remaining PBS by decanting. Invert the plate and blot it against clean paper toweling. Note, at this time plates can be air dried and stored covered at room temperature for later use. 2. Block the wells by adding 50 μL of Strep Diluent to each well. 3. Cover the plate with an adhesive plate sealer and incubate for 1 hour at room temperature (or overnight at 2-8° C.). […] PARP will autoribosylate in the presence of NAD. 1. […] After the last wash, remove any remaining PBS by decanting. Invert the plate and blot it against clean paper toweling. 2. […] 3. Add inhibitor of interest. The final reaction volume is 50 μL/well. […] Enzyme is added last. • For 24 wells: Make for 20=2×0.5 units=10 units • 20 wells×5 μL=100 μL 10 μL enzyme+90 μl of 1× PARP buffer […] 5. Incubate the plate for 30 minutes at room temperature. The extent of ribosylation is time dependant; therefore this step can be extended if desired. 1. […] After the last wash, remove any remaining PBS by decanting. Invert the plate and blot it against clean paper toweling. 2. Dilute Strep-HRP • Dilute 1:500 • For 20 wells=1,100 μL Strep diluent+2.2 μL Strep-HRP • Add 50 μL of diluted Strep-HRP to each well. 3. Incubate for 30 minutes at 37° C. […] After the last wash, remove any remaining PBS by decanting. Invert the plate and blot it against clean paper toweling. 5. Add 50 μL TACS-Sapphire dye to each well. Incubate for 10 minutes in the dark.
# Human A549 cells = settings: for cytoprotection against H2O2 (in words): same concentration as ADP-ribose (25 or 50 μg/ml)
# Sequence of poly (ADP-ribose) polymerase (PARP) (P09874 whole entry): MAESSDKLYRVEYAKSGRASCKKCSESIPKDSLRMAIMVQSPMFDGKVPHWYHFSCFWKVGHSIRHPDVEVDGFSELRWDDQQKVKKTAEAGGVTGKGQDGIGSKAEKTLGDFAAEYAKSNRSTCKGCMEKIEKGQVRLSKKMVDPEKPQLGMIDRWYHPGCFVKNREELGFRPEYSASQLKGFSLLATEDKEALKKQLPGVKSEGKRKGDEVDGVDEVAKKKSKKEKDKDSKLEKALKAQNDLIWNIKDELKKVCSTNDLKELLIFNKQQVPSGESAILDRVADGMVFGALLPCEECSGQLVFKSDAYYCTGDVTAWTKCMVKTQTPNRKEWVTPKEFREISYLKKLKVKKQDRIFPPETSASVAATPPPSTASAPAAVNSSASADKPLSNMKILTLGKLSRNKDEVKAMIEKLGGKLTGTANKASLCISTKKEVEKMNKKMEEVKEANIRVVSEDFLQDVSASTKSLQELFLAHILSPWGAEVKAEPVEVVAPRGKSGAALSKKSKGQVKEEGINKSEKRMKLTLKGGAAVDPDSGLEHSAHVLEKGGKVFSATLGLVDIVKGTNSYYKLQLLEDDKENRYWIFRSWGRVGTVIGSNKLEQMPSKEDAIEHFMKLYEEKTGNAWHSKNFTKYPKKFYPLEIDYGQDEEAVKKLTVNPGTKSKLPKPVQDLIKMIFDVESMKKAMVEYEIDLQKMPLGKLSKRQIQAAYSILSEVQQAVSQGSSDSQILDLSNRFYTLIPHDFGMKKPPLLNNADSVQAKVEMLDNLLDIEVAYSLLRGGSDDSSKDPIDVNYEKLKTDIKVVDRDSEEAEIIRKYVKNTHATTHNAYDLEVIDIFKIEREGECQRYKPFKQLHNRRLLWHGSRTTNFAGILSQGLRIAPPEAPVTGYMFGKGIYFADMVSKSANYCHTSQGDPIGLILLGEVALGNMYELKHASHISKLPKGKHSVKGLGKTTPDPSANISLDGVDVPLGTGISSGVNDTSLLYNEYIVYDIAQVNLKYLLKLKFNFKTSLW
Structure (SMILES),inhibition of PARP activity (in words) [1],protection from H2O2 cytotoxicity (Human A549 cells) [%],cytoprotection against H2O2 (in words) (Human A549 cells),protection of cells from cytotoxicity mediated cell death (in words) (Human A549 cells)
Nc1ncnc2c1ncn2[C@@H]1O[C@H](COP(=O)(O)OP(=O)(O)O[C@H]2O[C@H](CO)[C@@H](O)[C@H](O)[C@H]2O)[C@@H](O)[C@H]1O [ADP-glucose],unable to inhibit PARP activity,~25,cytoprotection was specific to ADP-ribose,–
Nc1ncnc2c1ncn2[C@@H]1O[C@H](COP(=O)(O)O)[C@@H](O)[C@H]1O [AMP],unable to inhibit PARP activity,–,cytoprotection was specific to ADP-ribose,–
Nc1ncnc2c1ncn2[C@@H]1O[C@H](CO)[C@@H](O)[C@H]1O [adenosine],unable to inhibit PARP activity,–,cytoprotection was specific to ADP-ribose,–
N=c1c2ncn3c2ncn1[C@@H]1O[C@H](COP(=O)(O)OP(=O)(O)OC[C@H]2O[C@@H]3[C@H](O)[C@@H]2O)[C@@H](O)[C@H]1O [cADP-ribose],–,–,–,unable to protect cells from cytotoxicity mediated cell death
